Data: article PMC5777145 (Analytical chemistry, 2017)
“Also recorded” adds a separate entry of the source.

Assays:
salmon testes DNA [1] = details: for ECL intensity vs enzyme reaction time, DNA oxidation (8-oxodG): 3 mM 4ABP, AF or anisidine, 5 mM NA, pH 7.4 + NADPH regenerating system + Cu2+, different cyt P450 sources, ECL at 0.7 V
salmon testes DNA [2] = test system: salmon testes DNA
DNA = details: cited from earlier work
cyt P450s = experiment: Mass spectrometry of metabolites after incubation with cyt P450s, NADPH and Cu2+; format: in vitro ADME; details: positive-ion electrospray MS
[3] = rodent TD50, Comet assay; cited from earlier work
[4] = ref International Agency for Research on Cancer (IARC); cited from earlier work

Which “ECL intensity vs enzyme reaction time, DNA oxidation (8-oxodG)” value (shortened to “ECL intensity vs enzyme reaction time”) (salmon testes DNA [1]) does the source give for Nc1ccc2c(c1)Cc1ccccc1-2 [AF, 2-aminofluorene] here?
The value was “increases in ECL with reaction time”.

Which “order of relative DNA adduction rate” value (salmon testes DNA [2]) does the source give for Nc1ccc2ccccc2c1 [NA, 2-naphthylamine] here?
Its value is 4-ABP > AF > anisidine > NA.

And the “relative turnover rate R, DNA adduction (level in words)” value (salmon testes DNA [2]; array R values)?
Its value is “smaller R values”.

And the “influence of cyt P450 source on relative DNA adduction rate” value (salmon testes DNA [2]; human, rat (enzyme sources), salmon (DNA))?
The value was “Supersome 1A2 had the largest relative DNA oxidation and adduction rates”.

What about the “major DNA adduct found” value (DNA) of the same compound?
Its value is “N-(2′-deoxyguanosin-8-yl)-2-naphthylamine”.

And the “relative turnover rate R, DNA oxidation (level in words)” value (salmon testes DNA [1])?
Its value is “smaller R values”.

And the “ECL intensity vs enzyme reaction time” value (salmon testes DNA [1])?
The value was “increases in ECL with reaction time”.

What about the “influence of cyt P450 source on relative DNA oxidation rate” value (salmon testes DNA [1]; human, rat (enzyme sources), salmon (DNA), pH 7.4) of the same compound?
Its value is “Supersome 1A2 had the largest relative DNA oxidation and adduction rates”.

What about the “order of relative DNA oxidation rates” value (salmon testes DNA [1]; pH 7.4) of the same compound?
Its value is 4-ABP > AF ≈ anisidine > NA.

And the metabolites found (cyt P450s)?
Its metabolites found is “hydronitroxide radical; also recorded: nitroso naphthalene”.

What about the “toxicity by conventional bioassays” value [3] of the same compound?
The value was “relative lower levels of toxicity”.

For Nc1ccc(-c2ccccc2)cc1 [4ABP, 4-Aminobiphenyl], which “major DNA adduct found” value (DNA) is on record?
The value was “N-(2′-deoxyguanosin-8-yl)-4-aminobiphenyl”.

And the carcinogen classification [4]?
Its carcinogen classification is “group I carcinogen”.

And the “ECL intensity vs enzyme reaction time” value (salmon testes DNA [1])?
Its value is “increase in ECL intensity with reaction time”.

For COc1ccccc1N [anisidine, o-anisidine], which “major DNA adduct found” value (DNA) is on record?
The value was “N-(2′-deoxyguanosin-8-yl)-2-methoxyaniline”.

What about the carcinogen classification [4] of the same compound?
The carcinogen classification was “group 2B carcinogen”.

And the “ECL intensity vs enzyme reaction time” value (salmon testes DNA [1])?
The value was “increases in ECL with reaction time”.

What about the metabolites found (cyt P450s) of the same compound?
The metabolites found was “o-aminophenol”.
